Drawing on EP4721737A1, “USE OF PHARMACEUTICAL COMPOSITION COMPRISING COMPOUND HAVING BIS(AZANYLYLIDENE) SULFONYL STRUCTURE FOR TREATING ANEMIA-RELATED DISEASES” (Scinnohub Pharmaceutical Co., Ltd., priority 2023, dated 2024), this text covers AC50 for eleven molecules.

One experiment concerns the target recombinant human PKR (Homo sapiens, UniProt P30613). In words: pyruvate kinase (PKR) activity test, activation of recombinant enzyme (fluorescence kit). Format: biochemical. The method, then: To test the activation effect of the compound of the present disclosure on recombinant human PKR.
3.1 A recombinant human PKR enzyme solution was prepared at a concentration of 60 ng/well (a 20 µL reaction system), and 5 µL of the solution was added into each well of a black transparent bottom 384-well plate.
3.2 Compound solutions were prepared at different concentrations, with the final concentrations of 1000/300/100 nM (containing 1% DMSO). Each 5 µL of the compound solution was added into the plate in step 3.1 and mixed well. The plate was incubated at room temperature for 10 min.
3.3 A reaction system was prepared according to the instructions of a kit (as shown in the table below), and 10 µL of the reaction system was added into each well of the 384-well plate, and mixed uniformly with the solution in step 3.2.
3.4 The 384-well plate was placed on a microplate reader to detect the fluorescence value at 540/590 nm, where the value was read every 2 minutes and the detection was conducted continuously for 1 hour.
3.5 The Slope value within the detection time was calculated, and the 1% DMSO well was used as a control well to calculate a compound activation rate. Activation rate % = (Slopeofcompoundwell/Slopeofcontrolwell) × 100% [formula]
With the log value of the compound concentration as the X axis and the percentage activation rate as the Y axis, a dose-effect curve was fitted with the log(agonist) vs. response-variable slope of the analysis software GraphPad Prism 5, and the AC50 value of the activity of each compound against PKR was obtained. Y = min + (max−min)/(1+10^(∧)((LogAC50−X)×Hillslope)). [formula]

For experiment [1], the target named is T1, PKR in ex vivo red blood cells from healthy individuals (Homo sapiens, UniProt P30613).
T1 construct: endogenous in cells; host or cells: human red blood cells isolated from fresh peripheral blood of healthy individuals
T1 sequence (P30613 whole entry): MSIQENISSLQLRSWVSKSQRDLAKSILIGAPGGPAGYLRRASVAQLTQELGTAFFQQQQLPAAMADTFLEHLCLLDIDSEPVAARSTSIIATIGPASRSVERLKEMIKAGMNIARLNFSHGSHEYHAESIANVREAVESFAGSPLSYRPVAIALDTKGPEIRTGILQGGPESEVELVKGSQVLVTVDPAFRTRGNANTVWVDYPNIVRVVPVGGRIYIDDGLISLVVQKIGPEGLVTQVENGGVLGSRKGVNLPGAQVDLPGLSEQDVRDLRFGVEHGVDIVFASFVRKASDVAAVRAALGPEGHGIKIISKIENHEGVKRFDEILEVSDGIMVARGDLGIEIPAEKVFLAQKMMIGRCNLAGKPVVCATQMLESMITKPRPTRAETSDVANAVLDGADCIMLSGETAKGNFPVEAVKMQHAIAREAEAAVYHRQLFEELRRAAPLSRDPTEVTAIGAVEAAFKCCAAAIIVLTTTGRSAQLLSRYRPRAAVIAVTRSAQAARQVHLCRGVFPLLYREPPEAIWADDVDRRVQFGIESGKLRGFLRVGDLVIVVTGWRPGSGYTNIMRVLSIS
In words: ex vivo pyruvate kinase (PKR) activity experiment, red blood cells of healthy individuals. As to conditions: 3 hours co-cultivation. Format: cell-based. Put shortly: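 Washed, Percoll-purified human RBCs at 1 × 10^7 cells/mL were exposed to compound (final 1–3000 nM, 1% DMSO) for 3 h at 37°C, then lysed. PKR activity in lysate was followed kinetically by fluorescence at 540/590 nm over 1 h. Slope versus 1% DMSO control gave % activation; AC50 from variable-slope fit.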

Bounds are passed on as bounds.

Chain of recombinant human PKR (P30613 whole entry): as above

Usually AC50 stands for the concentration giving half of the maximal activity seen. Consider `O=C(N1CC(=C2CN(S(=O)(=O)c3ccccn3)C2)C1)C1(c2ccccc2)CCOCC1` [Compound 58], for which the AC50 (at recombinant human PKR; in experiment [1]) was 101 to 300 nM throughout.
As to `O=C(C(CO)c1cccnc1)N1CC(=C2CN(S(=O)(=O)c3ccccn3)C2)C1` (stereo not shown) [Compound 60, 3-hydroxy-1-(1'-(pyridin-2-ylsulfonyl)-1',4'-dihydro-2H,2'H-[3,3'-diazetidinylidene]-1(4H)-yl)-2-(pyridin-3-yl)propan-1-one], the AC50 (at recombinant human PKR; in experiment [1]) was 300 to 1000 nM each time.
Consider `CC(C)(O)C(C(=O)N1CC(=C2CN(S(=O)(=O)c3ccccn3)C2)C1)c1ccccc1` (stereo not shown) [Compound 62, 3-hydroxy-3-methyl-2-phenyl-1-(1'-(pyridin-2-ylsulfonyl)-1',4'-dihydro-2H,2'H-[3,3'-diazetidinylidene]-1(4H)-yl)butan-1-one], for which the concentration at half-maximal activity (AC50) (on recombinant human PKR; in experiment [1]) was 300 to 1000 nM throughout.
As to `O=C(C1NCc2ccccc21)N1CC(=C2CN(S(=O)(=O)c3ccc4ncsc4c3)C2)C1` (stereo not shown) [Compound 64, (1'-(benzothiazol-6-ylsulfonyl)-1',4'-dihydro-2H,2'H-[3,3'-diazetidinylidene]-1(4H)-yl)(isoindolin-1-yl)methanone], the AC50 (at recombinant human PKR; in experiment [1]) was 300 to 1000 nM in each case.
In the case of `COc1ccc(S(=O)(=O)N2CC(=C3CN(C(=O)[C@H](CO)c4ccccc4)C3)C2)nc1` [Compound 67, (S)-3-hydroxy-1-(1'-((5-methoxypyridin-2-yl)sulfonyl)-1',4'-dihydro-2H,2'H-[3,3'-diazetidinylidene]-1(4H)-yl)-2-phenylpropan-1-one], the AC50 (on recombinant human PKR; in experiment [1]) was below 100 nM in each case.
As for `CCOc1ccc(S(=O)(=O)N2CC(=C3CN(C(=O)[C@H](CO)c4ccccc4)C3)C2)nc1` [Compound 72, (S)-1-(1'-((5-ethoxypyridin-2-yl)sulfonyl)-1',4'-dihydro-2H,2'H-[3,3'-diazetidinylidene]-1(4H)-yl)-3-hydroxy-2-phenylpropan-1-one], the AC50 (on recombinant human PKR; in experiment [1]) was below 100 nM in each case.
For `O=C(C(CF)c1ccccc1)N1CC(=C2CN(S(=O)(=O)c3ccccn3)C2)C1` (stereo not shown) [Compound 73, 3-fluoro-2-phenyl-1-(1'-(pyridin-2-ylsulfonyl)-1',4'-dihydro-2H,2'H-[3,3'-diazetidinylidene]-1(4H)-yl)propan-1-one], the AC50 (at recombinant human PKR; in experiment [1]) was 101 to 300 nM throughout.
Take `O=C(C(CO)c1ccc(F)cc1F)N1CC(=C2CN(S(=O)(=O)c3ccccn3)C2)C1` (stereo not shown) [Compound 74, 2-(2,4-difluorophenyl)-3-hydroxy-1-(1'-(pyridin-2-ylsulfonyl)-1',4'-dihydro-2H,2'H-[3,3'-diazetidinylidene]-1(4H)-yl)propan-1-one]: the half-maximal activity concentration (AC50) (on recombinant human PKR; in experiment [1]) was below 100 nM in each case.
`O=C(C(CO)c1ccc(C(F)(F)F)cc1)N1CC(=C2CN(S(=O)(=O)c3ccccn3)C2)C1` (stereo not shown) [Compound 78, 3-hydroxy-1-(1'-(pyridin-2-ylsulfonyl)-1',4'-dihydro-2H,2'H-[3,3'-diazetidinylidene]-1(4H)-yl)-2-(4-(trifluoromethyl)phenyl)propan-1-one]: the concentration at half-maximal activity (AC50) (at recombinant human PKR; in experiment [1]) was 300 to 1000 nM throughout.
On to `O=C(C(CO)c1ccc2c(c1)NCCO2)N1CC(=C2CN(S(=O)(=O)c3ccccn3)C2)C1` (stereo not shown) [Compound 79, 2-(3,4-dihydro-2H-benzo[b][1,4]oxazin-6-yl)-3-hydroxy-1-(1'-(pyridin-2-ylsulfonyl)-1',4'-dihydro-2 H,2'H-[3,3'-diazetidinylidene]-1(4H)-yl)propan-1-one], for which the AC50 at recombinant human PKR was below 100 nM; in experiment [1], 101 to 300 nM.
`O=C([C@H](CO)c1ccccc1)N1CC(=C2CN(S(=O)(=O)c3ccc(OC(F)F)cn3)C2)C1` [Compound 80, (S)-1-(1'-((5-(difluoromethoxy)pyridin-2-yl)sulfonyl)-1',4'-dihydro-2H,2'H-[3,3'-diazetidinylidene]-1 (4H)-yl)-3-hydroxy-2-phenylpropan-1-one]: the half-maximal activity concentration (AC50) (at recombinant human PKR; in experiment [1]) was below 100 nM each time.
